Experimental data: patent publication US20240216344A1, “THIAZOLIDINEDIONE ANALOGS FOR THE TREATMENT OF NAFLD AND METABOLIC DISEASES” (Cirius Therapeutics, Inc., priority 2019, published 2024)

Legend:
[1] = test system: patients with biopsy-confirmed NASH; test: EMMINENCE post hoc multivariable models and canonical correlation of biomarker changes with histological changes; set-up: species or system human
Source text: EMMINENCE was a phase 2 study examining the effects of three doses of MSDC-0602K versus placebo on liver histology in 392 patients with biopsy-confirmed nonalcoholic steatohepatitis (NASH). Patients provided written informed consent, and the protocol and consent form were approved by applicable institutional review boards. Baseline and 12-month biopsies were scored by a single expert hepatopathologist using the NASH Clinical Research Network (CRN) scoring criteria. Fasting blood samples for routine clinical chemistry as well as frozen samples for biomarker assays were analyzed centrally. In this post hoc analysis, multivariable models and partial canonical correlation were used to examine the associations between changes in biomarkers and changes in histological scores from baseline to 12 months in the 339 patients with paired biopsies. The trial was registered on ClinicalTrials.gov (NCT02784444).
Individual patient data from the 339 subjects with paired biopsy results in EMMINENCE were used to construct univariable and multivariable ANCOVA models for the 12-month change in each histological component (steatosis, inflammation, ballooning, and fibrosis). Candidate predictors included age, sex, type 2 diabetes (T2D) history, and baseline and 12-month changes in weight and laboratory parameters (liver injury markers, cholesterols, insulin sensitivity markers, ELF, CK-18). Non-linearity of the association between each continuous predictor and each outcome was examined by assessing the significance of the non-linear components of a restricted cubic spline transformation for each predictor. Appropriate transformations (quadratic, cubic, linear spline, log 2) were applied where deemed necessary based on review of the Akaike's Information Criterion and visual examination of plots of the predicted outcomes against each predictor. Due to issues with estimating the associations when severe multicollinearity exists between predictors in the model, ALT (collinear with AST) and waist circumference (collinear with weight) were excluded as candidate predictors. Multiple imputation with ten imputed datasets and assuming multivariate normality was used to handle missing values. The occurrence of missing data for any of the predictors was relatively low ([…] missing one or more predictor values). Rubin's algorithm was used for average estimates for predictors across the imputed datasets. Backwards selection was used for each outcome, with predictors remaining in a majority of the ten imputed datasets at the 0.05 significance level (>5) included in the final model. Each model was adjusted for the baseline value of the outcome. If a change from baseline predictor was included in the final model, then the baseline value for the parameter was also included in the final model.
A second multivariable model was fit for each outcome including the predictors found prognostic for any of the biopsy component changes. A multivariable ANCOVA model that included these predictors was run for NAS (the sum of ballooning, inflammation, and steatosis scores). Multivariable logistic regression models that included these predictors were also run for the binary outcomes of NASH resolution without worsening of fibrosis and fibrosis improvement without worsening of NASH.
A partial canonical correlation using individual patient data from EMMINENCE examined the correlation of changes in weight, AST, HbA1c, GGT, CK-18 (taken together) with changes in ballooning, inflammation, steatosis, and fibrosis (taken together) adjusted for those baseline variables prognostic of any of the histological feature changes in the multivariable models in the 306 subjects with complete observed data for the variables involved. This analysis results in “canonical variates” that are linear combinations of the original sets of variables weighted in such a way as to maximize the correlation between them. […]

[2] = test system: 3-dimensional bioprinted human liver organoids; test: 3-dimensional bioprinted human liver organoids, fibrosis by collagen staining; format: cell-based; settings: added to the tissue medium
[3] = test system: patients with biopsy-proven NASH with fibrosis and no cirrhosis; test: EMMINENCE Phase 2b trial, safety and weight; format: in vivo
Experimental: The primary efficacy endpoint was assessed at 12 months. Clinic visits were conducted at baseline, 1, 2, 3, 6, 9, and 12 months, followed 2 weeks later by a safety visit.
Safety: Safety was evaluated by adverse event incidence, and changes in clinical laboratory values, vital signs, and ECG parameters. Major adverse cardiovascular events (MACE) including death, non-fatal myocardial infarction (MI), unstable angina (USA) hospitalization, hospital admission for heart failure (HF), or non-fatal ischemic stroke; liver events including ascites, hepatic encephalopathy, variceal hemorrhage, hepatocellular carcinoma (HCC), or liver transplant; severe hypoglycemia; and bone fracture requiring surgery or hospitalization were adjudicated by an independent physician.
Using a modified intent-to-treat approach, treated patients were included for analysis in their randomly-assigned treatment groups. Participation of sites with serious GCP or quality concerns were terminated and their data excluded from the analyses. Post-baseline measures through 14 days after the last study drug dose were included. […] The central histopathologist's re-read of baseline biopsies was used as baseline. Patients who no longer qualified on re-read were included in the analyses. […] Stratification-adjusted risk differences adjusted similarly are provided. The primary analyses included only observed data; sensitivity analyses included multiply-imputing missing follow-up and considering missing follow-up as a non-responder. Each active dose was compared to placebo regarding changes in NASH CRN scores using analysis of covariance with adjustment for age, sex, diabetes mellitus, Vitamin E≥400 IU, baseline fibrosis F1 versus F2/F3, and the baseline value. Changes in laboratory markers from baseline to 6 months and to 12 months were analyzed similarly.

[4] = effect size for a change of 20 in MSDC-0602K Dose, multivariable model with dose added
[5] = effect size for a change of 20 in MSDC-0602K Dose, univariable model

`COc1cccc(C(=O)COc2ccc(CC3SC(=O)NC3=O)cc2)c1` (stereo not drawn) [MSDC-0602K] was tested, and the “Effect Size, change from baseline in steatosis, Multivariable Model” value ([1]; MSDC-0602K Dose, multivariable model with dose added, size of change not given) was −0.03, the “Effect Size for a change of 20 in MSDC-0602K Dose; outcome change from baseline in fibrosis” value ([1]; Multivariable model) was −0.01 and the “Effect Size for change of 20 in MSDC-0602K Dose; outcome NAS” value ([1]; Multivariable model) was −0.03. The “Effect Size for a change of 20 in MSDC-0602K Dose; outcome change from baseline in fibrosis” value ([1]; Univariable Model) was −0.02, the “Effect Size, change from baseline in ballooning, Multivariable Model” value [1, 4] was −0.02 and the “Effect Size, change from baseline in inflammation, Multivariable Model” value [1, 4] was 0.01. For the same compound, the “Effect Size, change from baseline in ballooning, Univariable Model” value [1, 5] was −0.01, the “Effect Size, change from baseline in inflammation, Univariable Model” value [1, 5] was −0.01 and the “Effect Size, change from baseline in steatosis, Univariable Model” value [1, 5] was −0.03. The “effects of the nutrients (stellate cell activation, fibrosis by collagen staining)” value [2] was “both prevented and reversed”, the “Non-cardiac chest pain (SAE)” value ([3]; 62.5 mg) was 1 patients and the “Subjects with TEAEs Leading to Study Drug Discontinuation” value (from here on “Subjects with TEAEs Leading”) ([3]; 62.5 mg) was 2 (2.0) n (%). For the same compound, the “Subjects with TEAEs Related to Study Drug” value ([3]; 62.5 mg) was 22 (22.2) n (%), the “Subjects with TEAEs Related to Study Drug and Leading to Study Drug Discontinuation” value ([3]; 62.5 mg) was 0 (0.0) n (%) and the “Subjects with any Treatment-Emergent Adverse Event (TEAE)” value (“Subjects … (TEAE)” below) ([3]; 62.5 mg) was 78 (78.8) n (%). The “TESAE: General disorders and administration site conditions” value ([3]; 62.5 mg) was 1 ( 1.0) n (%), the “TESAE: Non-cardiac chest pain” value ([3]; 62.5 mg) was 1 ( 1.0) n (%) and the “adverse events of edema” value ([3]; 62.5 mg) was 6 patients. The “fractures requiring hospitalization or surgery” value ([3]; 62.5 mg) was 1 patients, the treatment discontinuation rate ([3]; 62.5 mg) was 9.1% and the “unadjusted median weight change” value ([3]; 62.5 mg) was 0.82 kg. The “Non-cardiac chest pain (SAE)” value ([3]; 125 mg) was 1 patients, the “Subjects with TEAEs Leading” value ([3]; 125 mg) was 3 (3.1) n (%) and the “Subjects with TEAEs Related to Study Drug” value ([3]; 125 mg) was 26 (26.5) n (%). The “Subjects with TEAEs Related to Study Drug and Leading to Study Drug Discontinuation” value ([3]; 125 mg) was 1 (1.0) n (%), the “Subjects … (TEAE)” value ([3]; 125 mg) was 76 (77.6) n (%) and the “TESAE: General disorders and administration site conditions” value ([3]; 125 mg) was 2 (2.0) n (%). The “TESAE: Non-cardiac chest pain” value ([3]; 125 mg) was 1 (1.0) n (%), the “adjudicated HF hospitalization” value ([3]; 125 mg) was “One” and the “adjudicated MACE” value ([3]; 125 mg) was “two”. For the same compound, the “adverse events of edema” value ([3]; 125 mg) was 11 patients, the “fractures requiring hospitalization or surgery” value ([3]; 125 mg) was 1 patients and the treatment discontinuation rate ([3]; 125 mg) was 12.2%. The “unadjusted median weight change” value ([3]; 125 mg) was 1.10 kg, the unrelated deaths ([3]; 125 mg) was “one” and the “Subjects with TEAEs Leading” value ([3]; 250 mg) was 1 (1.0) n (%). The “Subjects with TEAEs Related to Study Drug” value ([3]; 250 mg) was 25 (24.8) n (%), the “Subjects with TEAEs Related to Study Drug and Leading to Study Drug Discontinuation” value ([3]; 250 mg) was 0 (0.0) n (%) and the “Subjects … (TEAE)” value ([3]; 250 mg) was 77 (76.2) n (%). For the same compound, the “TESAE: General disorders and administration site conditions” value ([3]; 250 mg) was 1 (1.0) n (%), the “TESAE: Non-cardiac chest pain” value ([3]; 250 mg) was 0 (0.0) n (%) and the “adjudicated severe hypoglycemia event” value ([3]; 250 mg) was “One”. The “adverse events of edema” value ([3]; 250 mg) was 7 patients, the “fractures requiring hospitalization or surgery” value ([3]; 250 mg) was 2 patients and the treatment discontinuation rate ([3]; 250 mg) was 12.9%. The “unadjusted median weight change” value ([3]; 250 mg) was 2.28 kg, the tolerability ([3]; 12 months daily oral) was “well tolerated” and the adjudicated liver events ([3]; all groups) was “no adjudicated liver events occurred”.
